Data on 23 compounds can be found in ChEMBL document CHEMBL5291721, “A preclinical secondary pharmacology resource illuminates target-adverse drug reaction associations of marketed drugs” (Nat Commun, 2023).

Molecules are shown by their SMILES. *1 amine or outer side, *2 acyl side, *3 side chain or, on linkers, in order; H or OH if unused. Where a SMILES comes first, the peptide text is derived from it. Bridges are numbered along the chain shown (N, C = ends). [ ]: non-standard residue; d: D form. The star is where a group is joined. hTyr(3S-OH,4S-OH,3'-OSO3H) = N[C@H](C(=O)O)[C@H](O)[C@@H](O)c1ccc(O)c(OS(=O)(=O)O)c1; Orn(4R-OH,5R-OH) = O=C([C@H](C[C@@H](O)[C@@H](O)N[*:3])N[*:1])[*:2]; Pro(3S-OH,4S-Me) = C[C@H]1CN[C@H](C(=O)O)[C@H]1O; X1 = CCCCCOc1ccc(-c2cc(-c3ccc(C(=O)*)cc3)no2)cc1; Gln(3R-OH) = NC(=O)C[C@@H](O)[C@H](N)C(=O)O; Hyp = O=C(O)[C@@H]1C[C@@H](O)CN1 Where only a bound is given, the exact number is not on record here.

Experiment [1] has as its target T1, Alpha-1A adrenergic receptor (Homo sapiens, UniProt P35348).
T1 sequence (P35348 whole entry): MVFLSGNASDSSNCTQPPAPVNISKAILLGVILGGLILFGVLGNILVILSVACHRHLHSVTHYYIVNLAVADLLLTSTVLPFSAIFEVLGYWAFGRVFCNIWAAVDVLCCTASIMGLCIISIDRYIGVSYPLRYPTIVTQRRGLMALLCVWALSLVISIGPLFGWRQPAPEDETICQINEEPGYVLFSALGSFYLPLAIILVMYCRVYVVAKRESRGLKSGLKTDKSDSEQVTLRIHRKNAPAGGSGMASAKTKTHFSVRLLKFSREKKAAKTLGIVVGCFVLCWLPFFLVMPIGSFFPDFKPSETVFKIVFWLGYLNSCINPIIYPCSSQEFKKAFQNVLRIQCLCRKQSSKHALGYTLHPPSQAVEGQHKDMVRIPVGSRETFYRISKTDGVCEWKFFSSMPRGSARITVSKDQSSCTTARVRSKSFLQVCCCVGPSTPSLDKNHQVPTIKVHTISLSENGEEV
Format: functional, cell-based.

Experiment [2] has as its target Gamma-aminobutyric acid receptor subunit alpha-1 (Rattus norvegicus, UniProt P62813).
In a further experiment the target is T2, Adenosine receptor A1 (Homo sapiens, UniProt P30542).
T2 sequence (P30542 whole entry): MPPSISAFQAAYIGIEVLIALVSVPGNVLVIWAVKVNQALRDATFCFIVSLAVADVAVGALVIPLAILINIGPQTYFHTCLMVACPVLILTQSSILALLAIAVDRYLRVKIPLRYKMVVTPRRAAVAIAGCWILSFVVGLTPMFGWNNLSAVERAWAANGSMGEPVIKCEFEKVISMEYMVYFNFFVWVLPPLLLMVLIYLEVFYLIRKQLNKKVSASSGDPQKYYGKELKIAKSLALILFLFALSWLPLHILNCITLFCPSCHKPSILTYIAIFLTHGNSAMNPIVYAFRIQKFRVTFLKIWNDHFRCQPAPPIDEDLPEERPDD

The target in experiment [3] is Beta-1 adrenergic receptor (Homo sapiens, UniProt P08588). Format: functional.
For experiment [4], the target named is T3, Gastrin/cholecystokinin type B receptor (Homo sapiens, UniProt P32239).
T3 sequence (P32239 whole entry): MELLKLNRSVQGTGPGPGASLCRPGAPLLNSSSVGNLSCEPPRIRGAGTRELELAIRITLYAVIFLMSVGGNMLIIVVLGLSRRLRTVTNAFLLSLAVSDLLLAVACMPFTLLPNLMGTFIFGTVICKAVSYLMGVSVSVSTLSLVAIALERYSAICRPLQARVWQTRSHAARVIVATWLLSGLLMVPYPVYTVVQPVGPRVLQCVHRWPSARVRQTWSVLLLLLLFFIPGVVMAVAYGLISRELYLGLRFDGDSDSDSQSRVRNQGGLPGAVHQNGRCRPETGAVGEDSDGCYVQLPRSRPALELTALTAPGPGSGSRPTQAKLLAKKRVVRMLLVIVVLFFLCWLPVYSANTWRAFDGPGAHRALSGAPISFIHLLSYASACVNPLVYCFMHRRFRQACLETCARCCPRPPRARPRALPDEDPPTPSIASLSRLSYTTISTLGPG

Another experiment has as its target Cannabinoid receptor 1 (Homo sapiens, UniProt P21554). Format: functional, cell-based.
Experiment [5] deals with 5-hydroxytryptamine receptor 2B (Homo sapiens, UniProt P41595). Format: functional, cell-based.
The target of another experiment is T4, Glucocorticoid receptor (Homo sapiens, UniProt P04150).
T4 sequence (P04150 whole entry): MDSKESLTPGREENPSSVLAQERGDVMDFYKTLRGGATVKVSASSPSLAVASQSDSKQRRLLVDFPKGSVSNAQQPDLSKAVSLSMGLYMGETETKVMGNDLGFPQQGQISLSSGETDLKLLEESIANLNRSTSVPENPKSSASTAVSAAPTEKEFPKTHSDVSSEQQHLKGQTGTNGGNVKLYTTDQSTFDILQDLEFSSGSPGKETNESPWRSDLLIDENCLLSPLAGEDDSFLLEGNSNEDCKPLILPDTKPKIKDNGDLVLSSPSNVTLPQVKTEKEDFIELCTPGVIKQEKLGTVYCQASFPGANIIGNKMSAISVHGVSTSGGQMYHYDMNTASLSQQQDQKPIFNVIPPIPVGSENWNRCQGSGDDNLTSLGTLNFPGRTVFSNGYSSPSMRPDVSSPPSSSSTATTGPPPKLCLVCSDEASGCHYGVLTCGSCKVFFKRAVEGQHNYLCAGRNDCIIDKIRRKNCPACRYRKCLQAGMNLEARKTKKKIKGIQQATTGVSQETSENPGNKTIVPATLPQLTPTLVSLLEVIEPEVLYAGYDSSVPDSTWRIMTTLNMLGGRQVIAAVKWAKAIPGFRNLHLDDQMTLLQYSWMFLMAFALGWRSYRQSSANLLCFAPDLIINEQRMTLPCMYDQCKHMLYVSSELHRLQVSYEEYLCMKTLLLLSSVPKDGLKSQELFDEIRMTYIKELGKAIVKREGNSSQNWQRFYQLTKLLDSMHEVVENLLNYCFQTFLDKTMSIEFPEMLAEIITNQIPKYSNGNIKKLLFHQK

Experiment [6] has as its target Delta-type opioid receptor (Homo sapiens, UniProt P41143).
Experiment [7] addresses T5, 5-hydroxytryptamine receptor 1A (Homo sapiens, UniProt P08908).
T5 sequence (P08908 whole entry): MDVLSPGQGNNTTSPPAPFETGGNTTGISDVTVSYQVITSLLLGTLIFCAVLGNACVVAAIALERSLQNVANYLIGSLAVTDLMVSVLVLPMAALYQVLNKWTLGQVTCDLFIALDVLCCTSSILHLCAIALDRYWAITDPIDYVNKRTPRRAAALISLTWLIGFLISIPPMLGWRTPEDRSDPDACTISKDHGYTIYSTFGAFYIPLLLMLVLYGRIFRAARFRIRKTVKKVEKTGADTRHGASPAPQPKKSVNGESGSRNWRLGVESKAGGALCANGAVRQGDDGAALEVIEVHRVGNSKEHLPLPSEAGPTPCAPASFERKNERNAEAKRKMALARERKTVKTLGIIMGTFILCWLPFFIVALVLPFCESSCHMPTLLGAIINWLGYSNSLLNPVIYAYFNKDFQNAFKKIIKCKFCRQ
The experiment is classed as functional, cell-based.
Note: assay procedure not described here.

Chain of Beta-1 adrenergic receptor (P08588 whole entry): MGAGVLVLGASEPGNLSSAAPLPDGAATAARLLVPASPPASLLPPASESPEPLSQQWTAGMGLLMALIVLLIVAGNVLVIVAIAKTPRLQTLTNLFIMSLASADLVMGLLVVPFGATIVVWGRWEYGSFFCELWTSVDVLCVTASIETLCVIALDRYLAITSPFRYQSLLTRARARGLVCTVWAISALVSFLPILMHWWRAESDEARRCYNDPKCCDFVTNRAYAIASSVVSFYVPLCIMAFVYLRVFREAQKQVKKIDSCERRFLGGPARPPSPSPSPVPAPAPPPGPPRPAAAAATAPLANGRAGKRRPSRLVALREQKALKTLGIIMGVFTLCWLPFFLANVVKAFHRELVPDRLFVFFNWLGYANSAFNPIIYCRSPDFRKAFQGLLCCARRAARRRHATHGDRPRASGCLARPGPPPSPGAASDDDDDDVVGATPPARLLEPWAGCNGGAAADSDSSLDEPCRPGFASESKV
Chain of Cannabinoid receptor 1 (P21554 whole entry): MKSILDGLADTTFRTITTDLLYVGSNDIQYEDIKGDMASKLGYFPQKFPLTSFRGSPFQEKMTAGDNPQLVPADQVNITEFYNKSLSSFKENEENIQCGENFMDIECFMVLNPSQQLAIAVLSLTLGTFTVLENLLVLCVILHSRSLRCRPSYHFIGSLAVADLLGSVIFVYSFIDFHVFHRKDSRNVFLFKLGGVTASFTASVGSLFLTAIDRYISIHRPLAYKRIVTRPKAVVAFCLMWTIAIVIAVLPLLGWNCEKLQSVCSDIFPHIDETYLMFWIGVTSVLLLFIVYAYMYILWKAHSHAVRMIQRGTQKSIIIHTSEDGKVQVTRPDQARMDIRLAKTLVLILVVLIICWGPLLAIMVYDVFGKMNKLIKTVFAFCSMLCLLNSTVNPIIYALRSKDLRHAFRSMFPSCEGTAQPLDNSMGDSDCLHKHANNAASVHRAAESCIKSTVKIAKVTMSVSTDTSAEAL
Chain of Gamma-aminobutyric acid receptor subunit alpha-1 (P62813 whole entry): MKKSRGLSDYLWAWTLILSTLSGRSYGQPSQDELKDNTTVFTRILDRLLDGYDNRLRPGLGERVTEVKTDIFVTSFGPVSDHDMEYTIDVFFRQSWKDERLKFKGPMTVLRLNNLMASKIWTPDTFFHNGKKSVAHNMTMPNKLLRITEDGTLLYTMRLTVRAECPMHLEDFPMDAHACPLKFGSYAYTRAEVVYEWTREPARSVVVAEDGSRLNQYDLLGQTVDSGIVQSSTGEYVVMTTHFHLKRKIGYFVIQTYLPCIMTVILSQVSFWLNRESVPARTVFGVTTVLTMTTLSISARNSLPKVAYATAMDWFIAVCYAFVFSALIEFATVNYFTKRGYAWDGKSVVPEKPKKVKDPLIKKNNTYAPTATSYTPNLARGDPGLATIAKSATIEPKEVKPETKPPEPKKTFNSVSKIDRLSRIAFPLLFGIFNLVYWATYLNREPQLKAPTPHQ
Chain of 5-hydroxytryptamine receptor 2B (P41595 whole entry): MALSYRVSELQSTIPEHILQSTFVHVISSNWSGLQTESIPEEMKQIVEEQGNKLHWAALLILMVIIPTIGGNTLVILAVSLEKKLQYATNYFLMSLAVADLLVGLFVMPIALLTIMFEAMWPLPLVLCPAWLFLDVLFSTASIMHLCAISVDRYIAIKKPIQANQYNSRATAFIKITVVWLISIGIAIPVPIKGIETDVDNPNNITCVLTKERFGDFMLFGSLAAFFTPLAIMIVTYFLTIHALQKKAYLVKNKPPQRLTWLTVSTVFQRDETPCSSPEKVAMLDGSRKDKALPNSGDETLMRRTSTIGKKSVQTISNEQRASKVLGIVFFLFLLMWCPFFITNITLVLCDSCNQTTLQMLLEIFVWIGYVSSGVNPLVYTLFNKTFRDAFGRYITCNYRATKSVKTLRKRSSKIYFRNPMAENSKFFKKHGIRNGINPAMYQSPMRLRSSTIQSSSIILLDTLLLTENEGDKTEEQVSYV
Chain of Delta-type opioid receptor (P41143 whole entry): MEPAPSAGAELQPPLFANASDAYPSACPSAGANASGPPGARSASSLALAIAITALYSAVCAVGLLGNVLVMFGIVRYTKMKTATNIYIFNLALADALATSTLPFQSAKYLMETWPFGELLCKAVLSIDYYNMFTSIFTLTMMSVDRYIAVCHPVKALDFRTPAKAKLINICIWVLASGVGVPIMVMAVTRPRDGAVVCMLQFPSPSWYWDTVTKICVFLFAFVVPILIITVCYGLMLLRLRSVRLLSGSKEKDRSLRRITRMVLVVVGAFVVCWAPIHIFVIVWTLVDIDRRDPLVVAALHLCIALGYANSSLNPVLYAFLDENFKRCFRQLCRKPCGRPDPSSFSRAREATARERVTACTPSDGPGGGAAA

The AC50 is the concentration giving half of the maximal activity seen. `CN1CCC[C@@H]1Cc1c[nH]c2ccc(CCS(=O)(=O)c3ccccc3)cc12`: the concentration at half-maximal activity (AC50) in experiment [1] and in experiment [2] was over 30 µM throughout.
As for `O=C(Nc1cccc2c(=O)cc(-c3nnn[nH]3)oc12)c1ccc(OCCCCc2ccccc2)cc1`, the half-maximal activity concentration (AC50) in [1] and in experiment [2] was over 30 µM throughout.
Take `NC(=O)c1nc(F)c[nH]c1=O`: the AC50 in [1] and in [2] was over 30 µM in each case.
`Cc1ccc([C@@H]2O[C@H](CO)[C@@H](O)[C@H](O)[C@H]2O)cc1Cc1ccc(-c2ccc(F)cc2)s1` [CANAGLIFLOZIN ANHYDROUS]: the half-maximal activity concentration (AC50) in experiment [1] and in [2] was over 30 µM in each case.
Consider `CN(C)CCN(Cc1ccc(Cl)cc1)c1ccccn1` [CHLOROPYRAMINE], for which the AC50 in experiment [1] and in experiment [2] was over 30 µM each time.
Consider `O=C(O)c1cc(=O)c2ccccc2o1` [CHROMOCARB], for which the half-maximal activity concentration (AC50) in experiment [1] and in [2] was over 30 µM in each case.
For `N[C@@H](CSSC[C@H](N)C(=O)O)C(=O)O` [CYSTINE], the AC50 in experiment [1] and in experiment [2] was over 30 µM in each case.
As for `C[C@]12CC[C@@H]3c4ccc(O)cc4CC[C@H]3[C@@H]1CC[C@@H]2OC(=O)CCC1CCCC1` [ESTRADIOL CYPIONATE], the concentration at half-maximal activity (AC50) in experiment [1] and in [2] was over 30 µM throughout.
`CC1(C)O[C@@H]2C[C@H]3[C@@H]4CCC5=CC(=O)CC[C@]5(C)[C@@]4(F)[C@@H](O)C[C@]3(C)[C@]2(C(=O)CCl)O1` [HALCINONIDE]: the half-maximal activity concentration (AC50) in experiment [1] and in experiment [2] was over 30 µM throughout.
Consider `C[C@]12CCC(=O)C=C1CC[C@@H]1[C@@H]2[C@@H](O)C[C@@]2(C)[C@H]1CC[C@]2(O)C(=O)COC(=O)CCC(=O)O` [HYDROCORTISONE HEMISUCCINATE ANHYDROUS], for which the AC50 in experiment [1] and in [2] was over 30 µM in each case.
As for `N=C(N)NCc1cccc([123I])c1` [IOBENGUANE I 123], the AC50 in experiment [1] and in experiment [2] was over 30 µM each time.
In the case of `CC(C)(N)C(=O)N[C@H](Cc1c[nH]c2ccccc12)C(=O)N[C@H](Cc1c[nH]c2ccccc12)NC=O` [MACIMORELIN], the half-maximal activity concentration (AC50) in experiment [1] and in experiment [2] was over 30 µM in each case.
Regarding `C=C1c2c(Cl)ccc(O)c2C(=O)C2=C(O)[C@]3(O)C(=O)C(C(N)=O)=C(O)[C@@H](N(C)C)[C@@H]3[C@@H](O)[C@H]12` [MECLOCYCLINE], the concentration at half-maximal activity (AC50) in experiment [1] and in [2] was over 30 µM throughout.
For the compound `CCCCCOc1ccc(-c2cc(-c3ccc(C(=O)N[C@H]4C[C@@H](O)[C@@H](O)NC(=O)[C@@H]5[C@@H](O)[C@@H](C)CN5C(=O)[C@H]([C@H](O)CC(N)=O)NC(=O)[C@H]([C@H](O)[C@@H](O)c5ccc(O)c(OS(=O)(=O)O)c5)NC(=O)[C@@H]5C[C@@H](O)CN5C(=O)[C@H]([C@@H](C)O)NC4=O)cc3)no2)cc1` [MICAFUNGIN] (X1-[Orn(4R-OH,5R-OH)]T[Hyp][hTyr(3S-OH,4S-OH,3'-OSO3H)][Gln(3R-OH)][Pro(3S-OH,4S-Me)]; lactam 1-C), the concentration at half-maximal activity (AC50) in experiment [1] and in [2] was over 30 µM each time.
In the case of `C#C[C@]1(O)CC[C@H]2[C@@H]3CCC4=C(CCC(=O)C4)[C@H]3CC[C@@]21C` [NORETHYNODREL], the AC50 in experiment [1] and in [2] was over 30 µM throughout.
Take `CN(C)c1cc(CNCC(C)(C)C)c(O)c2c1C[C@H]1C[C@H]3[C@H](N(C)C)C(O)=C(C(N)=O)C(=O)[C@@]3(O)C(O)=C1C2=O` [OMADACYCLINE]: the concentration at half-maximal activity (AC50) (on Adenosine receptor A1; in experiment [3]; in experiment [4]; on Cannabinoid receptor 1; in [2]; in [5]) was over 30 µM throughout. Besides, the half-maximal activity concentration (AC50) is over 30 µM at Glucocorticoid receptor and 27 µM in experiment [6].
With `CC(C)COc1ccc(CNC(=O)N(Cc2ccc(F)cc2)C2CCN(C)CC2)cc1` [PIMAVANSERIN], the AC50 in experiment [1] and in experiment [2] was over 30 µM throughout.
Consider `CNC(=O)c1cc(Oc2ccc(NC(=O)Nc3ccc(Cl)c(C(F)(F)F)c3)c(F)c2)ccn1` [REGORAFENIB], for which the AC50 in [3], in [2] and in experiment [6] was over 30 µM each time.
In the case of `CC(C)N(CCCCOCC(=O)NS(C)(=O)=O)c1cnc(-c2ccccc2)c(-c2ccccc2)n1` [SELEXIPAG], the AC50 on Adenosine receptor A1 is over 30 µM; in experiment [3], over 30 µM; in [4] it was over 10 µM; at Cannabinoid receptor 1 it was over 30 µM; in [7], 24 µM; in experiment [5], over 30 µM. The AC50 at Glucocorticoid receptor was over 30 µM; in [6] it was 25 µM.
Take `CC(=O)S[C@@H]1CC2=CC(=O)CC[C@]2(C)[C@H]2CC[C@@]3(C)[C@@H](CC[C@@]34CCC(=O)O4)[C@H]12` [SPIRONOLACTONE]: the half-maximal activity concentration (AC50) (at Adenosine receptor A1; in experiment [3]; in experiment [4]; at Cannabinoid receptor 1; in experiment [7]; in experiment [5]) was over 30 µM throughout. Further, the AC50 was 0.19 µM on Glucocorticoid receptor and over 30 µM in experiment [6].
As for `CN1CCN(CCCN2c3ccccc3Sc3ccc(S(=O)(=O)N(C)C)cc32)CC1` [THIOPROPERAZINE], the AC50 at Cannabinoid receptor 1 was over 30 µM; in experiment [2] it was over 30 µM; in experiment [5] it was over 30 µM; in [6], 29 µM.
In the case of `NCCc1ccc(O)cc1` [TYRAMINE], the AC50 in experiment [1] and in experiment [2] was over 30 µM in each case.
Regarding `Cc1cc(CC(=O)O)n(C)c1C(=O)c1ccc(Cl)cc1` [ZOMEPIRAC], the AC50 (at Adenosine receptor A1; in experiment [3]; in experiment [4]; on Cannabinoid receptor 1; in experiment [7]; in experiment [5]) was over 30 µM in each case. Besides, the half-maximal activity concentration (AC50) (at Glucocorticoid receptor; in experiment [6]) was over 30 µM throughout.
